Results on two molecules are retold here after patent US12084698B2, “Virus-like particles and use thereof” (priority 2018, dated 2024).

The test system of experiment [1] is EGxxFP reporter construct in HEK293T EGxxFP cells. The experiment is described as follows: SSA-EGFP (EGxxFP) reporter experiment, flow cytometry of GFP-positive cells. To be noted: VLPs prepared at 0, 3, 30, 300 nM AP21967; 5×10^4 cells; 3 days. It counts as cell-based, human. The procedure:
The HEK293T EGxxFP cells were seeded on a 48-well plate at 2.5×10^4 to 5.0×10^4 cells/well. On the next day, the VLP solution was added thereto, and then after 3 days, the fluorescence of EGFP was analyzed using an LSR3 flow cytometer.
FIG. 2 is a schematic view illustrating an SSA-EGFP (hereinafter, called “EGxxFP” in some cases) reporter experiment. As cells, HEK293T cells were used which constantly express sgRNA targeting the human Dystrophin (DMD) gene and have genome into which the EGxxFP reporter construct (SEQ ID NO: 21) was inserted. The EGxxFP reporter construct is a construct designed by inserting a sequence including the target sequence of the sgRNA into the EGFP cDNA sequence, so that a functional EGFP protein is not expressed.
Then, the cleaved EGFP cDNA is repaired by single-strand annealing (SSA). As a result, functional EGFP is expressed, and the fluorescence of EGFP can be observed. In this experimental system, by quantifying the fluorescence of EGFP in the cells by using a flow cytometer, it is possible to evaluate the target gene cleavage efficiency (genome editing efficiency) of the Cas9 protein in cell populations.
Then, the prepared VLPs (15 μL) were introduced into the HEK293T EGxxFP reporter cells (5×10^4 cells expressing sgRNA). Subsequently, after 3 days, the proportion of GFP-positive cells was analyzed with a flow cytometer.
A general note: A flow cytometer gives signals particle by particle.

Experiment [2] has as its system DNA (700 bp) including a dystrophin target sequence. The experiment can be described thus: In vitro DNA cleavage activity of VLP lysate. It counts as biochemical, human. As to conditions: VLPs prepared in presence or absence of AP21967. The procedure:
Thereafter, in order to test the amount of the Cas9 protein contained in VLPs, in vitro DNA cleavage activity was measured. Specifically, Lysis buffer was added to each of the concentrated VLPs, and the mixture was left to stand on ice for 10 minutes so that the VLPs were lysed.
After the reaction, in order to remove sgRNA, RNase A was added thereto and reacted at 37° C. for 30 minutes. Furthermore, in order to remove proteins, proteinase K was added thereto and reacted at 50° C. for 20 minutes.
Then, these samples were subjected to electrophoresis using 2200 TapeStation (high sensitivity D1000 TapeScreen, Agilent Technologies, Inc.), and the proportion of cleaved DNA including the dystrophin target sequence was measured.

For another experiment, the system named is DMD gene. The experiment is described as follows: T7EI assay in HEK293T EGxxFP cells expressing sgRNA DMD #1. It counts as cell-based, human. As to conditions: VLPs prepared in presence or absence of AP21967. The procedure: By using MonoFas Genomic DNA Extraction kit (GL Sciences Inc.), genomic DNA was recovered from the cultured cells according to the protocol. Then, PCR was performed using 100 ng of the genomic DNA, primers for the regions to be amplified, and PrimeSTAR GXL DNA Polymerase (Takara Bio Inc.), and the PCR product was purified using Wizard SV Gel and PCR Clean-up System (Promega Corporation).
Subsequently, 400 ng of the PCR product was thermally denatured in NEBuffer 2.1 (New England Biolabs) at 95° C. for 5 minutes and then reannealed by slow cooling. The PCR product was cooled to 85° C. from 95° C. at −2° C./sec and then to 25° C. from 85° C. at −0.1° C./sec. Subsequently, 10 units of T7 endonuclease I (T7EI) enzyme was added thereto and reacted at 37° C. for 15 minutes. Thereafter, 6 mM of EDTA was added thereto so that the reaction stopped. Then, the cleavage products were analyzed using DS1000 High Sensitivity Screen Tape and Tape Station 2200 (Agilent Technologies, Inc.).
Then, the cleavage activity for the target DMD gene on the genome was measured by T7EI assay.
After 3 days, genomic DNA was extracted from each of the cells. Subsequently, the target region of the DMD gene on the genome was amplified by PCR. Thereafter, the PCR product was purified using columns, and by using 400 ng of the obtained DNA, mutation introduction efficiency was measured by T7EI assay.

A further experiment concerns the target HIV protease (Human immunodeficiency virus type 1 group M subtype B, UniProt P04585). To be noted: Darunavir added to cells in preparing VLPs.

Experimental for HIV protease: First, in the presence or absence of Darunavir (HIV protease inhibitor), VLPs (FIGS. 1(a) and 1(b)) were prepared which were constituted with wild-type Gag-Pol^HIV or FKBP12-Gag-Pol^HIV derived from HIV and encapsulated a Cas9 protein fused with an FRB domain (hereinafter, called “FRB-Cas9 protein” in some cases).
Subsequently, FKBP12-Gag-Pol^HIV and the HA-tagged FRB-Cas9 protein in each of the above VLPs were quantified by Western blotting.

Regarding `CO[C@H]1[C@@H](O)[C@H](C)C[C@H](C)/C=C/C=C/C=C(\C)[C@@H](c2c[nH]c3c(C)cccc23)C[C@@H]2CC[C@@H](C)[C@@](O)(O2)C(=O)C(=O)N2CCCC[C@H]2C(=O)O[C@H]([C@H](C)C[C@@H]2CC[C@@H](O)[C@H](OC)C2)C[C@H](O)[C@H](C)/C=C(\C)[C@H]1O` [AP21967, C-16-(S)-7-methylindole rapamycin], in experiment [1], the “genome editing efficiency (proportion of GFP-positive cells)” value is reported as “increases depending on the AP21967 concentration”. Moreover, the “encapsulation of Cas9 in VLPs on addition of AP21967” value (in experiment [2]; with DMD gene) was “more efficiently encapsulated” each time.
Regarding `CC(C)CN(C[C@@H](O)[C@H](Cc1ccccc1)NC(=O)O[C@H]1CO[C@H]2OCC[C@H]21)S(=O)(=O)c1ccc(N)cc1` [Darunavir], on HIV protease, the “cleavage of Gag protein and degradation of Cas9 protein in VLPs” value is reported as “inhibited”.
